Test results: the CheMixHub viscosity set
Values joined by “and” are separate entries in the source; they are usually repeats but may differ in a detail not shown here. Equal values may be shown once.

CC(C)=O
Details	viscosity
293.15 K, 100 kPa	0.3276 mPa·s and 0.3276 mPa·s
293.15 K, 101.32 kPa	0.318 mPa·s
293.15 K, 101.33 kPa	0.337 mPa·s and 0.321 mPa·s
293.16 K, 101 kPa	0.326 mPa·s
293.2 K, 101 kPa	0.323 mPa·s
294.15 K, 101 kPa	0.362 mPa·s
296 K, 101.3 kPa	0.311 mPa·s
298.15 K, 100 kPa	0.3186 mPa·s and 0.3186 mPa·s
298.15 K, 101.3 kPa	0.316 mPa·s
298.15 K, 101.33 kPa	0.3013 mPa·s and 0.3049 mPa·s and 0.307 mPa·s
298.16 K, 101 kPa	0.316 mPa·s
302.4 K, 101 kPa	0.5915 mPa·s
302.95 K, 101 kPa	0.295 mPa·s
303.05 K, 101 kPa	0.335 mPa·s
303.15 K, 100 kPa	0.3091 mPa·s and 0.3091 mPa·s and 0.303 mPa·s
303.15 K, 101.33 kPa	0.295 mPa·s and 0.298 mPa·s and 0.339 mPa·s
303.16 K, 101 kPa	0.295 mPa·s
303.95 K, 101 kPa	0.3366 mPa·s
307.35 K, 101.33 kPa	0.29 mPa·s
308.15 K, 100 kPa	0.2992 mPa·s and 0.2992 mPa·s
311.35 K, 101 kPa	0.3166 mPa·s
313.15 K, 100 kPa	0.289 mPa·s and 0.289 mPa·s and 0.276 mPa·s
313.15 K, 101.33 kPa	0.3089 mPa·s
313.25 K, 101 kPa	0.27 mPa·s
318.15 K, 100 kPa	0.2784 mPa·s and 0.2784 mPa·s
318.15 K, 101 kPa	0.279 mPa·s and 0.2649 mPa·s
318.15 K, 101.32 kPa	0.2496 mPa·s
322.95 K, 101 kPa	0.248 mPa·s
323.15 K, 100 kPa	0.2673 mPa·s and 0.2673 mPa·s and 0.255 mPa·s
323.15 K, 101.33 kPa	0.2871 mPa·s

COc1ccccc1
Details	viscosity
293.15 K, 101.33 kPa	1.05 mPa·s and 1.143 mPa·s
298.15 K, 101 kPa	0.9912 mPa·s and 1 mPa·s and 0.9785 mPa·s
298.15 K, 101.3 kPa	0.99 mPa·s and 0.991 mPa·s
303 K, 100 kPa	0.9804 mPa·s
303 K, 101 kPa	0.9804 mPa·s
303 K, 101.3 kPa	0.981 mPa·s
303.15 K, 100 kPa	0.923 mPa·s
303.15 K, 101.3 kPa	0.916 mPa·s and 0.915 mPa·s and 0.923 mPa·s
308.15 K, 101 kPa	0.856 mPa·s and 0.856 mPa·s and 0.8422 mPa·s
313 K, 100 kPa	0.7623 mPa·s
313 K, 101 kPa	0.7623 mPa·s
313.15 K, 100 kPa	0.764 mPa·s
318.15 K, 101 kPa	0.745 mPa·s and 0.745 mPa·s
318.15 K, 101.33 kPa	0.739 mPa·s
323 K, 100 kPa	0.6146 mPa·s
323 K, 101 kPa	0.6146 mPa·s
323.15 K, 101 kPa	0.692 mPa·s and 0.692 mPa·s and 0.72 mPa·s
323.15 K, 101.33 kPa	0.691 mPa·s and 0.691 mPa·s and 0.69 mPa·s

Brc1ccc2[n-]cnc2c1.CCCCCCCCCCCCCC[P+](CCCCCC)(CCCCCC)CCCCCC
100 kPa
Details	viscosity [mPa·s]
293.15 K	1910
298.15 K	1270
303.15 K	872
308.15 K	613
313.15 K	441
318.15 K	325
323.15 K	246

CC1COC(=O)O1 (stereo not given)
viscosity
Details	293.15 K	298.15 K	303.15 K	308.15 K	313.15 K	318.15 K	323.15 K
99.7 kPa	–	–	2.212 mPa·s	–	1.998 mPa·s	–	1.766 mPa·s
100 kPa	–	2.53 mPa·s	–	–	–	–	–
101 kPa	2.938 mPa·s and 2.738 mPa·s and 2.72 mPa·s	2.531 mPa·s and 2.468 mPa·s and 2.51 mPa·s	2.24 mPa·s and 2.3 mPa·s and 2.29 mPa·s	–	–	1.654 mPa·s and 1.724 mPa·s and 1.85 mPa·s	1.538 mPa·s and 1.595 mPa·s
101.3 kPa	2.746 mPa·s and 2.763 mPa·s and 2.762 mPa·s	–	2.246 mPa·s and 2.3 mPa·s and 2.149 mPa·s	2.049 mPa·s and 2.046 mPa·s	1.879 mPa·s and 1.902 mPa·s	1.73 mPa·s and 1.755 mPa·s and 1.703 mPa·s	1.6 mPa·s
101.33 kPa	2.721 mPa·s	–	2.237 mPa·s	–	1.863 mPa·s	–	–

CCOCCn1cc[n+](CCC#N)c1.O=S(=O)([N-]S(=O)(=O)C(F)(F)F)C(F)(F)F
101.33 kPa
Details	viscosity [mPa·s]
293.15 K	401.1
303.15 K	235.6
313.15 K	146.2
323.15 K	105

O=C(O)CBr
Details	viscosity [mPa·s]
323.15 K, 101 kPa	3.65

CCCCn1cc[n+](C)c1.O=S(=O)([O-])C(F)(F)F
viscosity
Details	293.15 K	298.15 K	303.15 K	308.15 K	313.15 K	318.15 K	323.15 K
100 kPa	90.81 mPa·s and 102 mPa·s	76.01 mPa·s and 87.96 mPa·s and 80.1 mPa·s	63.6 mPa·s and 64.02 mPa·s	56.43 mPa·s and 52.18 mPa·s	42.11 mPa·s and 42.76 mPa·s	38.31 mPa·s and 35.66 mPa·s	30.02 mPa·s and 30.01 mPa·s
101 kPa	–	59.8 mPa·s	–	–	–	–	29.55 mPa·s

CC(C)C[P+](C)(CC(C)C)CC(C)C.Cc1ccc(S(=O)(=O)[O-])cc1
Details	viscosity [mPa·s]
293.15 K, 101 kPa	1320

CCOCCn1cc[n+](C)c1.C[C@@H](O)[C@H](N)C(=O)[O-]
100 kPa
Details	viscosity [mPa·s]
298.15 K	1133
303.15 K	730.3
308.15 K	438.8
313.15 K	312.5
318.15 K	206.8
323.15 K	153.8

C1CCOC1
Details	viscosity
293.15 K, 101.33 kPa	0.48 mPa·s
298 K, 101 kPa	0.4608 mPa·s
298 K, 101.33 kPa	0.461 mPa·s
298.15 K, 101.33 kPa	0.53 mPa·s and 0.481 mPa·s and 0.472 mPa·s
303 K, 101 kPa	0.42 mPa·s and 0.42 mPa·s
303 K, 101.3 kPa	0.422 mPa·s
303.15 K, 101.32 kPa	0.449 mPa·s
303.15 K, 101.33 kPa	0.4496 mPa·s and 0.45 mPa·s and 0.45 mPa·s
308 K, 101.33 kPa	0.42 mPa·s
313 K, 101 kPa	0.39 mPa·s and 0.39 mPa·s
313 K, 101.3 kPa	0.402 mPa·s
313.15 K, 100 kPa	0.39 mPa·s
313.15 K, 101.33 kPa	0.4066 mPa·s
323.15 K, 101.33 kPa	0.3696 mPa·s

CC(C)CC(=O)O
101.33 kPa
Details	viscosity [mPa·s]
293.15 K	2.411
313.15 K	1.672

C[N+](C)(C)CCO.O=S(=O)([N-]S(=O)(=O)C(F)(F)F)C(F)(F)F
101 kPa
Details	viscosity [mPa·s]
298.15 K	144.8
313.15 K	56.44
318.15 K	46.77
323.15 K	39.28

CCCC(=O)[O-].OCC[NH2+]CCO
101.3 kPa
Details	viscosity [mPa·s]
293.15 K	1832
298.15 K	1226
303.15 K	839.8
308.15 K	588.7
313.15 K	421.1
318.15 K	307.1
323.15 K	227.9

Cc1ccccc1
Details	viscosity
293.15 K, 100 kPa	0.598 mPa·s
293.15 K, 101.2 kPa	0.6003 mPa·s
293.15 K, 101.32 kPa	0.5859 mPa·s
293.15 K, 101.33 kPa	0.592 mPa·s
295.85 K, 101.33 kPa	0.5984 mPa·s
298 K, 101.33 kPa	0.546 mPa·s
298.15 K, 100 kPa	0.551 mPa·s
298.15 K, 101.33 kPa	0.506 mPa·s
302.4 K, 101 kPa	0.9538 mPa·s
303 K, 100 kPa	0.5268 mPa·s
303 K, 101.33 kPa	0.514 mPa·s and 0.515 mPa·s
303.15 K, 100 kPa	0.539 mPa·s
303.15 K, 101.2 kPa	0.5357 mPa·s
303.15 K, 101.3 kPa	0.5272 mPa·s
305.45 K, 101.33 kPa	0.5375 mPa·s
308 K, 100 kPa	0.4984 mPa·s
308.15 K, 100 kPa	0.498 mPa·s
308.15 K, 101.2 kPa	0.5069 mPa·s
308.15 K, 101.3 kPa	0.492 mPa·s and 0.4981 mPa·s and 0.503 mPa·s
308.5 K, 101 kPa	0.512 mPa·s
312.65 K, 101.33 kPa	0.4982 mPa·s
313 K, 100 kPa	0.4811 mPa·s
313 K, 101.33 kPa	0.463 mPa·s and 0.461 mPa·s
313.15 K, 100 kPa	0.495 mPa·s
313.15 K, 101 kPa	0.4601 mPa·s and 0.4804 mPa·s and 0.559 mPa·s
313.15 K, 101.2 kPa	0.4807 mPa·s
313.15 K, 101.33 kPa	0.478 mPa·s and 0.478 mPa·s and 0.481 mPa·s
318.15 K, 100 kPa	0.44 mPa·s
318.15 K, 101.2 kPa	0.4571 mPa·s
318.15 K, 101.32 kPa	0.4428 mPa·s
318.15 K, 101.33 kPa	0.458 mPa·s
322.65 K, 101.33 kPa	0.45 mPa·s
323 K, 101.33 kPa	0.413 mPa·s and 0.418 mPa·s
323.15 K, 101 kPa	0.4435 mPa·s and 0.418 mPa·s and 0.4321 mPa·s
